Test results from patent US4620014A, “2-furylbutyrolactones and methods for using same” (priority 1983, dated 1986).

Columns and labels:
[1] = test system: spleen lymphocytes from C57BL/6 mice; experiment: In vitro lymphocyte stimulation assay, C57BL/6 spleen lymphocytes; assay type: cell-based, mouse
Method: (§1) The purpose of this assay is to challenge lymphocytes in microcultures with one or more polyclonal mitogens at concentrations that will induce mitogenesis within 72 hours of stimulation.
(§2) In the mouse model, spleens are removed from different strains of mice and the spleen cells are teased free and suspended in RPMI-1640 tissue culture medium at a concentration of usually 1×10^7 ml. These cells are dispensed at a concentration of 5.0×10^5 cells per microculture well in a 96 well flat bottom 96 well tissue culture plate. All testing of the compounds of this invention or mitogens are done in replicates of 10. The cells are then treated with PHA, Con-A, specific antigens, or buffer only. If in vitro testing is done, varying concentrations of the compounds of this invention or buffer only are added to the cells as well. After treatment with the mitogens and/or compounds of this invention, the cells are incubated for 72 hours. The response of these cells to mitogens and/or the compounds of this invention is assessed using ^14 C-thymidine labeling on the fourth day at a concentration of 0.01 μCi/well. The labeled cells are harvested using a lymphocyte harvestor and placed onto fibrous paper discs. A scintillation cocktail is added to vials contaning the discs and the results are obtained using a LKB-liquid scintillation counter (Model 1216/Rackbeta II). The data is expressed as a ratio of the cpm of the mitogen stimulated group to the control (non-mitogen) treated group=lymphocyte stimulation index (LSI).
(§3) The lymphocyte stimulation assay may be performed directly on spleen cells obtained from various strains of mice not treated with the compounds of this invention or on lymphocytes obtained from […]. […] Alternatively, the mice may be treated in vivo with the compounds of this invention by intraperitoneal multi-dose schedules, followed by sacrifice and harvesting spleen lymphocytes. These cells are then tested for their response to polyclonal mitogens or specific antigens used to immunize the mice. In this sytem however, no additional compound is added to the in vitro lymphocyte stimulation assay system.
An in vitro lymphocyte stimulation assay is performed directly on normal spleen lymphocytes removed from five normal C57BL/6 mice, using concentrations of Cpd. […] Following three days of incubation the assay is completed.
An in vitro lymphocyte stimulation assay was performed using spleen lymphocytes from normal C57BL/6 mice. The lymphocytes were treated with either 1, 5, 10, 50, or 100 μg/well of Cpd. 1 or buffer.
Cpd. 2 was tested using normal spleen lymphocytes from C57BL/6 mice. A lymphocyte stimulation assay was conducted using either 1, 5, 10, 50, or 100 μg/well […] or just buffer.
Spleen cells from C57BL/6 mice were treated, in vitro, with the crystallizing reagents, succinic acid and succinimide. Since these compounds are spontaneously released from the molecular complex in solution at a molar ratio of 2 moles of Cpds. 1, 2, or 3 per mole of the crystalline reagent, these reagents were treated in the lymphocyte stimulation assay at proper molar concentrations.
The compound of example 3, Cpd. 3, was used to treat C57BL/6 spleen lymphocytes in vitro. The lymphocytes were treated with either 1, 5, 10, 50, or 100 μg/well of Cpd. 3 or just buffer and then a lymphocyte stimulation assay was performed.

[2] = test system: spleen lymphocytes of C57BL/6 mice; experiment: In vivo treatment, lymphocyte stimulation assay, C57BL/6 mice; conditions: 4 days
Method: as §1, §2, §3
Two strains of mice, C57BL/6 and BDF1 are treated for seven days with i.p. administration of either 25, 50, 100, 200, or 400 mg/kg of Cpd. 1 or just buffer. This is followed on the eighth day by a lymphocyte stimulation assay.
A comparison is made of the lymphocyte response to C57BL/6 mice treated 4 days with i.p. administration of either 50, 100, 200, 400 or 800 mg/kg of Cpd. 1, 50, 100, 200, 400 or 800 mg/kg of ascorbic acid (AA), or just buffer. This is followed on the fifth day by a lymphocyte stimulation assay.
Two strains of mice, C57BL/6 and BALB/c, are treated 4 days with i.p. administration of either 50, 100, 200, or 400 mg/kg of Cpd. 1, or just buffer. This is followed on the fifth day by a lymphocyte stimulation assay.
C57BL/6 mice were treated with four daily i.p. doses of either 50, 100, 200, or 400 mg/kg of Cpd. 1 or just buffer. On the fifth day a lymphocyte stimulation assay was performed.
Mice of the C57BL/6 strain were tested with i.p. administration of either 100, 200, 400 or 600 mg/kg of Cpd. 1 or just buffer. This was followed by removal of spleens and treatment of lymphocytes therein with mitogens PHA and Con-A.
The compound of Example 2, Cpd. 2, was tested in vivo by using C57BL/6 mice and treating them with […] or just buffer for four consecutive days by the i.p. route. On the fifth day a lymphocyte stimulation assay was performed.

human lymphocytes = experiment: In vitro lymphocyte stimulation assay in humans; assay type: cell-based; conditions: 0.1-100 μg/well, PHA and Con-A
Method: as §1, §2
as §3, with “In this sytem however, no additional compound is added to the in vitro lymphocyte stimulation assay system.” left out

L-1210 leukemia = experiment: Anti-cancer study, L-1210 leukemia in BDF1 mice; assay type: in vivo, mouse; conditions: 20 mg/kg, seven days (Table 25)
Source text: Mice of the BDF1 strain are given an i.p. inoculation of 10^6 L-1210 leukemia cells on day 0. Twenty-four hours later, groups of 7 mice each are started on a […] treatment regimen of various doses of the compounds of this invention. The experiment is continued according to the guidelines provided under the National Cancer Institute protocol for screening new anti-cancer agents and T/C ratios (median or mean survival time of treated groups over median or mean survival time of controls) are calculated. A T/C value ≥1.25 (or 125%) is considered significant anticancer activity.
(§4) Mice of the BDF1 strain, inoculated with L-1210 leukemia cells, are treated for seven days with either 25, 50, 100, 200 or 400 mg/kg of Cpd. 1 or just buffer. The National Cancer Institute protocol for screening new anti-cancer agents is followed and T/C ratios are calculated.
as §4, with “either 100” for “either 25, 50, 100, 200 or 400”, “Cpd. 1, 20 mg/kg of 5-fluorouracil (5-FU), a known anti-cancer agent,” for “Cpd. 1”

For `O=C(O)CCC(=O)O` [Succinic Acid, succinic acid, reference compound], the “Lymphocyte Stimulation Index, Con-A” value ([1]; 1.04 μg/well in vitro) was 64.6, the “Lymphocyte Stimulation Index, Control (no mitogen)” value ([1]; 1.04 μg/well in vitro) was “.94” and the “Lymphocyte Stimulation Index, PHA” value ([1]; 1.04 μg/well in vitro) was 15.7. The “Lymphocyte Stimulation Index, Con-A” value ([1]; 2.08 μg/well in vitro) was 51.1, the “Lymphocyte Stimulation Index, Control (no mitogen)” value ([1]; 2.08 μg/well in vitro) was 1.0 and the “Lymphocyte Stimulation Index, PHA” value ([1]; 2.08 μg/well in vitro) was 15.3. The “Lymphocyte Stimulation Index, Con-A” value ([1]; 4.15 μg/well in vitro) was 42.3, the “Lymphocyte Stimulation Index, Control (no mitogen)” value ([1]; 4.15 μg/well in vitro) was “.91” and the “Lymphocyte Stimulation Index, PHA” value ([1]; 4.15 μg/well in vitro) was 14.0. For the same compound, the “Lymphocyte Stimulation Index, Con-A” value ([1]; 8.3 μg/well in vitro) was 35.6, the “Lymphocyte Stimulation Index, Control (no mitogen)” value ([1]; 8.3 μg/well in vitro) was “.91” and the “Lymphocyte Stimulation Index, PHA” value ([1]; 8.3 μg/well in vitro) was 12.4. For the same compound, the “Lymphocyte Stimulation Index, Con-A” value ([1]; 16.6 μg/well in vitro) was 38.5, the “Lymphocyte Stimulation Index, Control (no mitogen)” value ([1]; 16.6 μg/well in vitro) was 1.1 and the “Lymphocyte Stimulation Index, PHA” value ([1]; 16.6 μg/well in vitro) was 11.5. The “PHA and Con-A mitogenesis” value ([1]; with increased dosage, 1.04-16.6 μg/well) was “decrease in PHA and Con-A mitogenesis”.

`CN1C(=O)CCC1=O.Cc1ccc(C2(O)C(=O)OC3C(O)COC32O)o1.Cc1ccc(C2(O)C(=O)OC3C(O)COC32O)o1` (stereo not shown) [Cpd. 3] was tested, and the “Lymphocyte Stimulation Index, Con-A” value ([1]; 1 μg/well in vitro) was 73.2, the “Lymphocyte Stimulation Index, Control (no mitogen)” value ([1]; 1 μg/well in vitro) was “.60” and the “Lymphocyte Stimulation Index, PHA” value ([1]; 1 μg/well in vitro) was 12.5. For the same compound, the “Lymphocyte Stimulation Index, Con-A” value ([1]; 5 μg/well in vitro) was 80.9, the “Lymphocyte Stimulation Index, Control (no mitogen)” value ([1]; 5 μg/well in vitro) was “.64” and the “Lymphocyte Stimulation Index, PHA” value ([1]; 5 μg/well in vitro) was 18.5. The “response to PHA” value ([1]; 10 μg/well) was “significantly stimulated the response”, the “Lymphocyte Stimulation Index, Con-A” value ([1]; 10 μg/well in vitro) was 89.6 and the “Lymphocyte Stimulation Index, Control (no mitogen)” value ([1]; 10 μg/well in vitro) was “.47”. The “Lymphocyte Stimulation Index, PHA” value ([1]; 10 μg/well in vitro) was 24.0, the “response to Con-A” value ([1]; 50 μg/well) was “slightly stimulated the response” and the “Lymphocyte Stimulation Index, Con-A” value ([1]; 50 μg/well in vitro) was 97.2. The “Lymphocyte Stimulation Index, Control (no mitogen)” value ([1]; 50 μg/well in vitro) was “.27”, the “Lymphocyte Stimulation Index, PHA” value ([1]; 50 μg/well in vitro) was 4.08 and the “response to Con-A” value ([1]; 100 μg/well) was “suppressed the response”. The “Lymphocyte Stimulation Index, Con-A” value ([1]; 100 μg/well in vitro) was 2.88, the “Lymphocyte Stimulation Index, Control (no mitogen)” value ([1]; 100 μg/well in vitro) was “.25” and the “Lymphocyte Stimulation Index, PHA” value ([1]; 100 μg/well in vitro) was 0.263. For the same compound, the “response to PHA” value ([1]; 50 and 100 μg/well) was “suppressed the response”.

`O=C1O[C@H]([C@@H](O)CO)C(O)=C1O` [AA, ascorbic acid, reference compound] was tested, and the “proliferation with Con-A” value ([2]; 50 mg/kg i.p.) was “stimulation of proliferation”, the “effect with PHA” value ([2]; 50-800 mg/kg i.p.) was “No statistically significant measurable effect” and the “proliferative or anti-proliferative effect” value (human lymphocytes) was “no significant proliferative or anti-proliferative effect”.

For `O=c1[nH]cc(F)c(=O)[nH]1` [5-FU, 5-fluorouracil, reference compound], the “Median Survival Time” value (L-1210 leukemia) was 30.

With `O=C1CCC(=O)N1` [Succinimide, succinimide, reference compound] the “Lymphocyte Stimulation Index, Con-A” value ([1]; 13.92 μg/well in vitro) was 92.9, the “Lymphocyte Stimulation Index, Control (no mitogen)” value ([1]; 13.92 μg/well in vitro) was 1.4 and the “Lymphocyte Stimulation Index, PHA” value ([1]; 13.92 μg/well in vitro) was 17.1. The “effect on response to either mitogen” value ([1]; 0.87-13.92 μg/well) was “no significant suppressive or enhancing effect”.
